Literature values in US20250295639A1, “METHODS FOR TREATING HEART DISEASES” (Cytokinetics, Incorporated, priority 2024, published 2025).

Tested on: patients with oHCM
Settings: cited from earlier work

For `CC(C)n1c(=O)cc(N[C@@H](C)c2ccccc2)[nH]c1=O` [mavacamten], the “benefit (pVO2, exercise duration, peak METs) in patients receiving beta blockers” value (EXPLORER-HCM) is listed as “attenuation of benefit” and the “peak oxygen uptake (pVO2) and other CPET parameters” value (patients with oHCM) is listed as “has shown efficacy”.
